In ChEMBL document CHEMBL1144365, “Benzodipyrazoles: a new class of potent CDK2 inhibitors” (Bioorg Med Chem Lett, 2005):

target: Cyclin-dependent kinase 2/cyclin A (Homo sapiens, UniProt P24941)
Description: Inhibition of Cyclin A-cyclin-dependent kinase 2

With C=CCONC(=O)c1nn(-c2ccc(OC)cc2)c2c1CCc1[nH]ncc1-2 as the compound, how does the IC50 read?
The IC50 was 4500 nM.

With CCCCNS(=O)(=O)n1nc(C(=O)O)c2c1-c1c[nH]nc1CC2 as the compound, how does the IC50 read?
The IC50 was 1200 nM.

With CS(=O)(=O)c1ccc(-n2nc(C(N)=O)c3c2-c2cn[nH]c2CC3)cc1 as the compound, how does the IC50 read?
Its IC50 is 30 nM.

For CC(C)CC1Cc2c[nH]nc2-c2c[nH]nc21 (configuration not stated), which IC50 is on record?
Its IC50 is 87 nM.

Which IC50 does the source give for CCCCNS(=O)(=O)n1nc(C(=O)NC)c2ccc3[nH]ncc3c21 here?
The IC50 was 610 nM.

Which IC50 does the source give for CNS(=O)(=O)c1ccc(-n2nc(C(N)=O)c3ccc4[nH]ncc4c32)cc1 here?
Its IC50 is 20 nM.

For COc1ccc(-n2nc(N)c3ccc4[nH]ncc4c32)cc1, which IC50 is on record?
Its IC50 is greater than 10000 nM.

With NC(=O)c1nn(-c2ccc(OC(F)(F)F)cc2)c2c1CCc1[nH]ncc1-2 as the compound, how does the IC50 read?
Its IC50 is 510 nM.

With NC(=O)c1nn(-c2ccc(C3=NCC=N3)cc2)c2c1CCc1n[nH]cc1-2 as the compound, how does the IC50 read?
The IC50 was 250 nM.

Which IC50 does the source give for NC(=O)c1nn(-c2ccc(C3=NCC=N3)cc2)c2c1ccc1[nH]ncc12 here?
The IC50 was 75 nM.

Which IC50 does the source give for CCCCNS(=O)(=O)n1nc(C(=O)NC)c2c1-c1c[nH]nc1CC2 here?
Its IC50 is 600 nM.

For COc1ccc(-n2nc(C(=O)NN)c3ccc4[nH]ncc4c32)cc1, which IC50 is on record?
Its IC50 is 210 nM.

Which IC50 does the source give for NC(=O)c1nn(-c2ccc(Cl)cc2)c2c1CCc1[nH]ncc1-2 here?
Its IC50 is 160 nM.

Which IC50 does the source give for NC(=O)c1nn(CCO)c2c1CCc1[nH]ncc1-2 here?
Its IC50 is 1150 nM.

Which IC50 does the source give for CNS(=O)(=O)c1ccc(-n2nc(C(N)=O)c3c2-c2cn[nH]c2CC3)cc1 here?
Its IC50 is 40 nM.

Which IC50 does the source give for CCOC(=O)c1nn(-c2ccc(C)cc2)c2c1CCc1[nH]ncc1-2 here?
The IC50 was 8500 nM.

With COc1ccc(-n2nc(C#N)c3ccc4[nH]ncc4c32)cc1 as the compound, how does the IC50 read?
Its IC50 is 1750 nM.

For CCCCNS(=O)(=O)n1nc(C(N)=O)c2ccc3[nH]ncc3c21, which IC50 is on record?
Its IC50 is 2 nM.

Which IC50 does the source give for COc1ccc(-n2nc(C(=O)NN)c3c2-c2cn[nH]c2CC3)cc1 here?
The IC50 was 2100 nM.

Which IC50 does the source give for CCOC(=O)c1nn(-c2ccc(OC)cc2)c2c1CCc1[nH]ncc1-2 here?
The IC50 was 8100 nM.

With N#Cc1ccc(-n2nc(C(N)=O)c3c2-c2cn[nH]c2CC3)cc1 as the compound, how does the IC50 read?
Its IC50 is 190 nM.

Which IC50 does the source give for COc1ccc(-n2nc(C(=O)O)c3c2-c2cn[nH]c2CC3)cc1 here?
Its IC50 is 2100 nM.

With CCCCNS(=O)(=O)n1nc(C(N)=O)c2c1-c1c[nH]nc1CC2 as the compound, how does the IC50 read?
Its IC50 is 210 nM.

With C=CCONC(=O)c1nn(S(=O)(=O)NCCCC)c2c1ccc1[nH]ncc12 as the compound, how does the IC50 read?
Its IC50 is 200 nM.

Which IC50 does the source give for CCCCNS(=O)(=O)c1ccc(-n2nc(C(=O)OCC)c3c2-c2cn[nH]c2CC3)cc1 here?
The IC50 was 10000 nM.

For CN1CCN(S(=O)(=O)c2ccc(-n3nc(C(N)=O)c4c3-c3cn[nH]c3CC4)cc2)CC1, which IC50 is on record?
The IC50 was greater than 10000 nM.

For CN1CCN(S(=O)(=O)c2ccc(-n3nc(C(N)=O)c4ccc5[nH]ncc5c43)cc2)CC1, which IC50 is on record?
Its IC50 is 150 nM.

For COc1ccc(-n2nc(C(=O)O)c3ccc4[nH]ncc4c32)cc1, which IC50 is on record?
Its IC50 is 210 nM.

Which IC50 does the source give for C=CCONC(=O)c1nn(S(=O)(=O)NCCCC)c2c1CCc1n[nH]cc1-2 here?
The IC50 was 2850 nM.

Which IC50 does the source give for CCOC(=O)c1nn(-c2ccc(OC)cc2)c2c1ccc1[nH]ncc12 here?
The IC50 was 7500 nM.

For NC(=O)c1nn(-c2ccc(C(F)(F)F)cc2)c2c1CCc1[nH]ncc1-2, which IC50 is on record?
Its IC50 is 80 nM.

With NC(=O)c1nn(-c2cccnc2)c2c1CCc1[nH]ncc1-2 as the compound, how does the IC50 read?
Its IC50 is 1600 nM.

Which IC50 does the source give for CC(=O)c1nn(-c2ccc(C)cc2)c2c1CCc1[nH]ncc1-2 here?
The IC50 was 900 nM.

For Cc1cccc(-n2nc(C(N)=O)c3ccc4[nH]ncc4c32)c1, which IC50 is on record?
Its IC50 is 9 nM.

target: not listed separately; test: Inhibition of Glycogen synthase kinase-3 beta

Which IC50 does the source give for CC(C)CC1Cc2c[nH]nc2-c2c[nH]nc21 (configuration not stated) here?
The IC50 was greater than 10000 nM.

With Cc1ccc(-n2nc(C(N)=O)c3c2-c2c[nH]nc2CC3)cc1 as the compound, how does the IC50 read?
Its IC50 is 460 nM.

For Cc1ccc(-n2nc(C(N)=O)c3ccc4[nH]ncc4c32)cc1, which IC50 is on record?
Its IC50 is 23 nM.
